How the values were obtained:
[1] = test system: Polθ foci formation in RPE-1 cells expressing GFP–Polθ; assay: siRNA screen for ionizing radiation-induced Polθ foci formation; type: cell-based, human; conditions: 10 nM siRNA, 72 h, then 5 Gy, 2 h; cells with at least 5 Polθ foci; median RZ score of the three siRNAs, three replicate experiments
Source text: (§1) The Human DDR siRNA library comprising 1,746 single siRNAs representing 582 human genes (3 siRNAs per gene) was obtained from ThermoFisher Scientific (A30089). For controls, siRNAs targeting GL2, kinesin family member 11 (KIF11) and GM130 were used to assess transfection efficacy and induced cell toxicity. FANCD2 siRNA ([…]dT, defined as FANCD2-ctrl in Supplementary Table 1) was used as a positive control inhibiting Polθ foci formation. RPE-1 cells expressing GFP–Polθ (250 cells per well in 384-well plates) were grown overnight. siRNAs were incubated 15 min with 0.05 μl Interferin reagent (Polyplus transfection) and Opti-MEM (ThermoFisher Scientific) prior to being transferred into each 384-well plate wells, to obtain a 10 nM final concentration. Cells were irradiated 72 h after transfection, at a dose of 5 Gy (226 s) with the CIXD irradiator (RadeXp platform, Institut Curie) and incubated at 37 °C, 5% CO2 for 2 h. […] Polθ was then identified as organelles in the nuclei area and quantified by the average intensity of pixels within the defined organelles region. […] Corrected values were normalized as follows: sample median and median absolute deviation (MAD) were calculated from the Interferin-treated population of each internal plate data points (named as Ref pop) and used to compute robust Z-scores[59] […]

[2] = test system: RPE-1 cells expressing GFP–Polθ; assay: siRNA screen, cell count; type: cell-based, human
Source text: as §1

GGAGAUUGAUGGUCUACUATdT (GGAGAUUGAUGGUCUACUATT; chemistry not given here) [fancd2-ctrl]
Robust z score_corrected_Cells multi-foci_MultiFoci (%) [1]: -7.14 | Toxicity threshold [2]: Toxic

From publication PMC10499603, “Polθ is phosphorylated by PLK1 to repair double-strand breaks in mitosis” (Nature, 2023)
